Reference: US12077503B2, “Substituted cyclic amides and their use as herbicides” (FMC CORPORATION, priority 2015, dated 2024)

Columns and labels:
Format in all cases: in vivo
Kochia (Kochia scoparia) [1] = test: Test A preemergence; settings: for Plant response rating, Kochia: 125 g ai/ha, preemergence, 0 to 100 scale (0 no effect, 100 complete control); for Kochia plant response rating (0 to 100 scale): Preemergence, 500 g ai/ha, 0 is no effect, 100 is complete control
Excerpt: (§1) Seeds of plant species selected from barnyardgrass (Echinochloa crus-galli), Kochia (Kochia scoparia), ragweed (common ragweed, Ambrosia elatior), ryegrass, Italian (Italian ryegrass, Lolium multiflorum), crabgrass, large (Digitaria sanguinalis), giant foxtail (Setaria faberii), green foxtail (Setaria viridis), morningglory (Ipomoea spp.), pigweed (Amaranthus retroflexus), velvetleaf (Abutilon theophrasti), wheat (Triticum aestivum), and corn (Zea mays) were planted into a blend of loam soil and sand and treated preemergence with a directed soil spray using test chemicals formulated in anon-phytotoxic solvent mixture which included a surfactant.
(§2) At the same time, plants selected from these crop and weed species and also blackgrass (Alopecurus myosuroides), and Galium (catchweed bedstraw, Galium aparine) were planted in pots containing the same blend of loam soil and sand and treated with postemergence applications of test chemicals formulated in the same manner. Plants ranged in height from 2 to 10 cm and were in the one- to two-leaf stage for the postemergence treatment. Treated plants and untreated controls were maintained in a greenhouse for approximately 10 d, after which time all treated plants were compared to untreated controls and visually evaluated for injury. Plant response ratings, summarized in Table A, are based on a 0 to 100 scale where 0 is no effect and 100 is complete control. A dash (-) response means no test result.

[2] = tested on: barnyardgrass (Echinochloa crus-galli); test: Test A preemergence; settings: for Plant response rating, Barnyardgrass: 125 g ai/ha, preemergence, 0 to 100 scale (0 no effect, 100 complete control); for Barnyardgrass plant response rating (0 to 100 scale): Preemergence, 500 g ai/ha, 0 is no effect, 100 is complete control
Excerpt: as §1, §2

[3] = tested on: giant foxtail (Setaria faberii); test: Test A preemergence; settings: for Plant response rating, Foxtail, Giant: 125 g ai/ha, preemergence, 0 to 100 scale (0 no effect, 100 complete control); for Foxtail, Giant plant response rating (0 to 100 scale): Preemergence, 500 g ai/ha, 0 is no effect, 100 is complete control
Excerpt: as §1, §2

[4] = tested on: pigweed (Amaranthus retroflexus); test: Test A preemergence; settings: for Plant response rating, Pigweed: 125 g ai/ha, preemergence, 0 to 100 scale (0 no effect, 100 complete control); for Pigweed plant response rating (0 to 100 scale): Preemergence, 500 g ai/ha, 0 is no effect, 100 is complete control
Excerpt: as §1, §2

[5] = tested on: ragweed (common ragweed, Ambrosia elatior); test: Test A preemergence; settings: for Plant response rating, Ragweed: 125 g ai/ha, preemergence, 0 to 100 scale (0 no effect, 100 complete control); for Ragweed plant response rating (0 to 100 scale): Preemergence, 500 g ai/ha, 0 is no effect, 100 is complete control
Excerpt: as §1, §2

[6] = tested on: ryegrass, Italian (Italian ryegrass, Lolium multiflorum); test: Test A preemergence; settings: for Plant response rating, Ryegrass, Italian: 125 g ai/ha, preemergence, 0 to 100 scale (0 no effect, 100 complete control); for Ryegrass, Italian plant response rating (0 to 100 scale): Preemergence, 500 g ai/ha, 0 is no effect, 100 is complete control
Excerpt: as §1, §2

[7] = tested on: Galium (catchweed bedstraw, Galium aparine); test: Test A postemergence
Excerpt: as §1, §2

Kochia (Kochia scoparia) [8] = test: Test A postemergence
Excerpt: as §1, §2

[9] = tested on: barnyardgrass (Echinochloa crus-galli); test: Test A postemergence
Excerpt: as §1, §2

[10] = tested on: blackgrass (Alopecurus myosuroides); test: Test A postemergence
Excerpt: as §1, §2

corn (Zea mays) = test: Test A postemergence
Excerpt: as §1, §2

[11] = tested on: giant foxtail (Setaria faberii); test: Test A postemergence
Excerpt: as §1, §2

[12] = tested on: pigweed (Amaranthus retroflexus); test: Test A postemergence
Excerpt: as §1, §2

[13] = tested on: ragweed (common ragweed, Ambrosia elatior); test: Test A postemergence
Excerpt: as §1, §2

[14] = tested on: ryegrass, Italian (Italian ryegrass, Lolium multiflorum); test: Test A postemergence
Excerpt: as §1, §2

[15] = tested on: wheat (Triticum aestivum); test: Test A postemergence
Excerpt: as §1, §2

[16] = tested on: barnyardgrass (Echinochloa crus-galli); test: Test B flooded paddy test; settings: Flood, 250 g ai/ha; 0 to 100 scale where 0 is no effect and 100 is complete control; 13 to 15 d
Procedure: (§3) Plant species in the flooded paddy test selected from rice (Oryra sativa), sedge, umbrella (small-flower umbrella sedge, Cyperus difformis), ducksalad (Heteranthera limosa), and barnyardgrass (Echinochloa crus-galli) were grown to the 2-leaf stage for testing. At time of treatment, test pots were flooded to 3 cm above the soil surface, treated by application of test compounds directly to the paddy water, and then maintained at that water depth for the duration of the test. Treated plants and controls were maintained in a greenhouse for 13 to 15 d, after which time all species were compared to controls and visually evaluated. Plant response ratings, summarized in Table B, are based on a scale of 0 to 100 where 0 is no effect and 100 is complete control. A dash (-) response means no test result.

[17] = tested on: ducksalad (Heteranthera limosa); test: Test B flooded paddy test; settings: Flood, 250 g ai/ha; 0 to 100 scale where 0 is no effect and 100 is complete control; 13 to 15 d
Procedure: as §3

rice (Oryra sativa) = test: Test B flooded paddy test; settings: Flood, 250 g ai/ha; 0 to 100 scale where 0 is no effect and 100 is complete control; 13 to 15 d
Procedure: as §3

[18] = tested on: sedge, umbrella (small-flower umbrella sedge, Cyperus difformis); test: Test B flooded paddy test; settings: Flood, 250 g ai/ha; 0 to 100 scale where 0 is no effect and 100 is complete control; 13 to 15 d
Procedure: as §3

[19] = 500 g ai/ha, postemergence, 0 to 100 scale, 0 no effect, 100 complete control
[20] = Postemergence, 125 g ai/ha, visual injury, 0 to 100 scale (0 no effect, 100 complete control), approx. 10 d

SMILES: Cc1ccc(C2CNC(=O)C2C(=O)Nc2ccc(F)c(F)c2F)cc1F (racemic) [Compound 371]
- Plant response rating, Kochia (Kochia (Kochia scoparia) [1]): 20
- Kochia plant response rating (0 to 100 scale) (Kochia (Kochia scoparia) [1]): 60
- Plant response rating, Barnyardgrass [2]: 90
- Barnyardgrass plant response rating (0 to 100 scale) [2]: 90
- Plant response rating, Foxtail, Giant [3]: 90
- Foxtail, Giant plant response rating (0 to 100 scale) [3]: 90
- Plant response rating, Pigweed [4]: 0
- Pigweed plant response rating (0 to 100 scale) [4]: 20
- Plant response rating, Ragweed [5]: 30
- Ragweed plant response rating (0 to 100 scale) [5]: 40
- Plant response rating, Ryegrass, Italian [6]: 0
- Ryegrass, Italian plant response rating (0 to 100 scale) [6]: 20
- Plant response rating, Galium [7, 19]: 30
- Plant response rating, Galium [7, 20]: 30
- Plant response rating, Kochia (Kochia (Kochia scoparia) [8]; [19]): 40
- Plant response rating, Kochia (Kochia (Kochia scoparia) [8]; [20]): 20
- Plant response rating, Barnyardgrass [9, 19]: 90
- Plant response rating, Barnyardgrass [9, 20]: 80
- Plant response rating, Blackgrass [10, 19]: 60
- Plant response rating, Blackgrass [10, 20]: 30
- Plant response rating, Corn (corn (Zea mays); [19]): 60
- Plant response rating, Corn (corn (Zea mays); [20]): 20
- Plant response rating, Foxtail, Giant [11, 19]: 90
- Plant response rating, Foxtail, Giant [11, 20]: 50
- Plant response rating, Pigweed [12, 19]: 20
- Plant response rating, Pigweed [12, 20]: 0
- Plant response rating, Ragweed [13, 19]: 30
- Plant response rating, Ragweed [13, 20]: 0
- Plant response rating, Ryegrass, Italian [14, 19]: 30
- Plant response rating, Ryegrass, Italian [14, 20]: 20
- Plant response rating, Wheat [15, 19]: 40
- Plant response rating, Wheat [15, 20]: 0
- Plant response rating, Barnyardgrass [16]: 60
- Plant response rating, Ducksalad [17]: 100
- Plant response rating, Rice (rice (Oryra sativa)): 20
- Plant response rating, Sedge, Umbrella [18]: 0

SMILES: Cc1cccc(C2CNC(=O)C2C(=O)Nc2cccc(F)c2F)c1 (racemic) [Compound 373]
- Plant response rating, Kochia (Kochia (Kochia scoparia) [1]): 0
- Kochia plant response rating (0 to 100 scale) (Kochia (Kochia scoparia) [1]): 30
- Plant response rating, Barnyardgrass [2]: 90
- Barnyardgrass plant response rating (0 to 100 scale) [2]: 90
- Plant response rating, Foxtail, Giant [3]: 80
- Foxtail, Giant plant response rating (0 to 100 scale) [3]: 90
- Plant response rating, Pigweed [4]: 0
- Pigweed plant response rating (0 to 100 scale) [4]: 20
- Plant response rating, Ragweed [5]: 0
- Ragweed plant response rating (0 to 100 scale) [5]: 30
- Plant response rating, Ryegrass, Italian [6]: 30
- Ryegrass, Italian plant response rating (0 to 100 scale) [6]: 40
- Plant response rating, Galium [7, 19]: 30
- Plant response rating, Galium [7, 20]: 30
- Plant response rating, Kochia (Kochia (Kochia scoparia) [8]; [19]): 40
- Plant response rating, Kochia (Kochia (Kochia scoparia) [8]; [20]): 0
- Plant response rating, Barnyardgrass [9, 19]: 80
- Plant response rating, Barnyardgrass [9, 20]: 80
- Plant response rating, Blackgrass [10, 19]: 40
- Plant response rating, Blackgrass [10, 20]: 20
- Plant response rating, Corn (corn (Zea mays); [19]): 50
- Plant response rating, Corn (corn (Zea mays); [20]): 20
- Plant response rating, Foxtail, Giant [11, 19]: 70
- Plant response rating, Foxtail, Giant [11, 20]: 40
- Plant response rating, Pigweed [12, 19]: 30
- Plant response rating, Pigweed [12, 20]: 20
- Plant response rating, Ragweed [13, 19]: 0
- Plant response rating, Ragweed [13, 20]: 0
- Plant response rating, Ryegrass, Italian [14, 19]: 20
- Plant response rating, Ryegrass, Italian [14, 20]: 30
- Plant response rating, Wheat [15, 19]: 70
- Plant response rating, Wheat [15, 20]: 20
- Plant response rating, Barnyardgrass [16]: 60
- Plant response rating, Ducksalad [17]: 100
- Plant response rating, Rice (rice (Oryra sativa)): 20
- Plant response rating, Sedge, Umbrella [18]: 0
